Values quoted from earlier work as cited in patent US8450379B2, “Methods for treating migraine” (Corcept Therapeutics, Inc., priority 2002, dated 2013).

How the values were obtained:
[1] = molecular target: T1, glucocorticoid (GR) receptors (Homo sapiens, UniProt P04150)
T1 sequence (P04150 1-777): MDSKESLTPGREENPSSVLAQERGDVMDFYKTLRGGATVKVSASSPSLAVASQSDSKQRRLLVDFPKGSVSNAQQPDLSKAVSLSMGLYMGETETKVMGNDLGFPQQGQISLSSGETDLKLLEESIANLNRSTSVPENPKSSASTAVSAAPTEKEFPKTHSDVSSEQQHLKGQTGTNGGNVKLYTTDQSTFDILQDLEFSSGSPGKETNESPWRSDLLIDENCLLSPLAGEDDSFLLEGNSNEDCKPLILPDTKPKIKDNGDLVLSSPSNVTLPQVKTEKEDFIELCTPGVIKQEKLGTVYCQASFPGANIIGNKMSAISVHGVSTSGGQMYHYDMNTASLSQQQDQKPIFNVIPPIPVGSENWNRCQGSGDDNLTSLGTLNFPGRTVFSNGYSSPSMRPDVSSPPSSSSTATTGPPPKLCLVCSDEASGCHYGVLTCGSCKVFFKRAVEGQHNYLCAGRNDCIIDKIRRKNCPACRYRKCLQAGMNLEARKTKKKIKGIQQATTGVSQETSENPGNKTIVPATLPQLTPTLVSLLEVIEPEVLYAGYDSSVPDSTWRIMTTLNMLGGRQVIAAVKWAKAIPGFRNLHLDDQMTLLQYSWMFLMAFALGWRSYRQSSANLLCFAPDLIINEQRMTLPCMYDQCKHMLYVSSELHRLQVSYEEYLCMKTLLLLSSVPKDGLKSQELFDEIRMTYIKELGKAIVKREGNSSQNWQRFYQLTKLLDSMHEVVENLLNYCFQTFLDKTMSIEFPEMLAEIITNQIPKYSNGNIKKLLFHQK

progesterone receptors = molecular target: T2, progesterone receptors (Homo sapiens, UniProt P06401)
T2 sequence (P06401 1-933): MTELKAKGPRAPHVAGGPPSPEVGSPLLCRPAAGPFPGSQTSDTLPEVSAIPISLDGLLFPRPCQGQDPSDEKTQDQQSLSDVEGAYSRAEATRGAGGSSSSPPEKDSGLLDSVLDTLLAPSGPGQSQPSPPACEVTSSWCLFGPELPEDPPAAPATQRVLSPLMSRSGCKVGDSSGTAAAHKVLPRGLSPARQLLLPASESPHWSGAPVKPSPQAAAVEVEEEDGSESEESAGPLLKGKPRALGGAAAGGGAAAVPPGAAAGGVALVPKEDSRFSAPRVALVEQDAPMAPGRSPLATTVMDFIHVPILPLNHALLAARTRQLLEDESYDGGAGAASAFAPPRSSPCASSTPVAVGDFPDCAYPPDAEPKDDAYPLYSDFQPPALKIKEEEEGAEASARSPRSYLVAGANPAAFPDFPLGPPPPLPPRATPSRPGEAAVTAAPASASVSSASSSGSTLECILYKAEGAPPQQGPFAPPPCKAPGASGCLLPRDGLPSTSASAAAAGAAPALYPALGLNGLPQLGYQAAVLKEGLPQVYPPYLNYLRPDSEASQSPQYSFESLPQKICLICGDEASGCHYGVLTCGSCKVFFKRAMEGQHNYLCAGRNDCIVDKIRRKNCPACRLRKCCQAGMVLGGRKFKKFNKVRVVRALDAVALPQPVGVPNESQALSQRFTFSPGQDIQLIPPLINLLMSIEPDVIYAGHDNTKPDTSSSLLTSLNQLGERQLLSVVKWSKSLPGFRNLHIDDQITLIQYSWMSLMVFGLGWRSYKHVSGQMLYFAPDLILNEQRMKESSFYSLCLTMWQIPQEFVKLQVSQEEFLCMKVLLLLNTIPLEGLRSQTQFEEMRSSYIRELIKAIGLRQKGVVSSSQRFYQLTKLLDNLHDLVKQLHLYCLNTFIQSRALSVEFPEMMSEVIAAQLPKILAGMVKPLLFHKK

[2] = one study (Kawai)
[3] = molecular target: T3, Mineralocorticoid receptors (MRs) (Homo sapiens, UniProt P08235); details: MR versus GR
T3 sequence (P08235 1-984): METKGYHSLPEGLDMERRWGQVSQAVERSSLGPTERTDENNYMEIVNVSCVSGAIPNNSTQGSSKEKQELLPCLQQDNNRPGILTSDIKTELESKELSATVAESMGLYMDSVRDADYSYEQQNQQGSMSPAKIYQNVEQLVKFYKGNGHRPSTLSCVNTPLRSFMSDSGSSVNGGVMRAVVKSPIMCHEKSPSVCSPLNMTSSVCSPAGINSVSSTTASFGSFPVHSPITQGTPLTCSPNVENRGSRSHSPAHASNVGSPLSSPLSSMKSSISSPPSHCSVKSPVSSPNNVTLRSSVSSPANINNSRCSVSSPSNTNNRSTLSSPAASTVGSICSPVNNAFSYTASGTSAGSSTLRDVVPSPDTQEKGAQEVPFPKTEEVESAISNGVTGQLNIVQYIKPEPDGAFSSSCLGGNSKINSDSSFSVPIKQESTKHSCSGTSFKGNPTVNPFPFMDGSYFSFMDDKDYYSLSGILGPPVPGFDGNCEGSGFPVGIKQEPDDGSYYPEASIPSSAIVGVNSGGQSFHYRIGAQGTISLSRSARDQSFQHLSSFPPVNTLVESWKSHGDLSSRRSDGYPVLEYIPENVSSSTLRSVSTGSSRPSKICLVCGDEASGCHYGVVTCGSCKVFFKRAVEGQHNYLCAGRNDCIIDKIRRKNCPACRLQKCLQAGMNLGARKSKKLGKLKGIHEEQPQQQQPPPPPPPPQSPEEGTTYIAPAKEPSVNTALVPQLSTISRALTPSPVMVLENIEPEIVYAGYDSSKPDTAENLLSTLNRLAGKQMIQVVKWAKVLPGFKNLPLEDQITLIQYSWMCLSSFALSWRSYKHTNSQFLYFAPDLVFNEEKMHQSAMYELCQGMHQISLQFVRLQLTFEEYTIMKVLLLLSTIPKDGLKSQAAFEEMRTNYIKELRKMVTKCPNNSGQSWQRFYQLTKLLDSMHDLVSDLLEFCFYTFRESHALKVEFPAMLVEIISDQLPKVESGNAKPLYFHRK

| affinity of MR for cortisol relative to GR binding of glucocorticoids [3] | Structure (SMILES) | antagonism of glucocorticoid (GR) receptor [1] | antagonism of progesterone receptor (progesterone receptors) | fraction of the daily dose excreted in the urine [2] |
| --- | --- | --- | --- | --- |
|  | CC#C[C@]1(O)CC[C@H]2[C@@H]3CCC4=CC(=O)CCC4=C3[C@@H](c3ccc(N(C)C)cc3)C[C@@]21C [Mifepristone, (11β,17β) 11[4 (dimethylamino)phenyl]-17 hydroxy-17 (1 propynyl)estra-4,9 dien-3 one] | powerful antagonist | powerful antagonist | less than 0.5 % of the daily dose |
|  | CC#C[C@]1(O)CC[C@H]2[C@@H]3CCC4=CC(=O)CCC4=C3[C@@H](c3ccc(OCCN(C)C)cc3)C[C@@]21C [RU009, 11β-(4-dimethylaminoethoxyphenyl)-17α-propynyl-17β-hydroxy-4,9-estradien-3-one] | GR antagonist effects |  |  |
| ten-fold higher affinity | C[C@]12CCC(=O)C=C1CC[C@@H]1[C@@H]2[C@@H](O)C[C@@]2(C)[C@H]1CC[C@]2(O)C(=O)CO [cortisol] |  |  |  |
